Several values for one entry are separate records, joined by “and”; a condition that tells them apart may be missing. Equal values may be shown once. Read-outs that look alike come from different tables or passages of the source.
How the values were obtained:
[1] = system: p27 protein levels in DU145 cells; assay: Immunoblot quantification of p27, DU145; format: cell-based, human
Experimental: (§1) Total cell lysate from cells treated with vehicle (DMSO) or compounds were obtained by incubating cells in lysis buffer (25 mM Tris-HCl pH 7.4, 150 mM NaCl, 0.5% Triton X-100, protease inhibitors) for 15 min at 4°C. The supernatant was collected by centrifugation and the amount of protein was determined with a Bio-Rad protein assay (Bio-Rad) using BSA as standard. Equal amounts of protein were subjected to SDS-PAGE (4%-20% gels, Invitrogen) and transferred to PVDF membranes. The membranes were blocked with TBST (50 mM Tris-HCl pH 7.5, 150 mM NaCl, 0.05% Tween-20) containing 5% non-fat dry milk or bovine serum albumin (BSA) for 1 h at room temperature, followed by incubation in primary antibodies 4°C overnight. Membranes were washed and incubated with secondary antibodies conjugated to HRP (Jackson ImmunoResearch Laboratories) for 1 h at room temperature. Signals were visualized using the ECL Western Blotting Substrate (Pierce Biotechnology, IL, USA) according to the manufacturer's instructions. Membranes were stripped using Restore™ Western Blot Stripping Buffer (Pierce Biotechnology). Films were scanned and quantification of the bands was performed using Image J software http://rsbweb.nih.gov/ij/.

DU145 cells = assay: Cell cycle analysis by flow cytometry, DU145; format: cell-based, human
Experimental: (§2) Cells were exposed to SMIPs (40 μM) for 24 h and 48 h. Cells were trypsinized, washed with PBS and suspended in 600 μL PBS. Cells were fixed by adding 1.4 mL cold absolute ethanol and kept at -20°C for at least 12 h. After washing once with PBS, the cells were resuspended in 250 μL PBS containing 2.5 μg RNAse A and incubated for 45 min at room temperature. Staining was done by adding 40 μg/mL of propidium iodine followed by incubation for 15 min at room temperature. DNA-bound fluorescence was read at 564 to 606 nm using FACSort and FACSCanto flow cytometers (BD Biosciences) at the Flow Cytometry Facility of the Sanford-Burnham Medical Research Institute. Distribution of cells in the different cell cycle phase was determined with ModFit LT 3.2.1 or FlowJo 8.6 software. Aggregates were excluded from the analysis manually using pulse shape or identified by automated modelling in ModFit LT.

LNCaP-WT cells = assay: MTT cytotoxicity assay, LNCaP-WT; details: Homo sapiens, read-out: IC50 (MTT cytotoxicity)
Experimental: (§3) LNCaP-S14 (10,000 cells), PC3, DU145 or IMR90 cells (5000 cells) were seeded in 96-well plates and treated with increasing concentrations of the respective SMIPs for 72 h. Cell viability was assessed using the MTT cell proliferation assay (ATCC®, Middlesex, UK) according to the manufacturer's protocol. IC50 was calculated using the BioDataFit 1.02 software http://www.changbioscience.com/stat/ec50.html.

[2] = system: p27 protein levels in PC3 cells; assay: Immunoblot quantification of p27, PC3; format: cell-based, human
Experimental: as §1

LNCaP-S14 cells [3] = assay: MTT cytotoxicity assay, LNCaP-S14; details: Homo sapiens, 72 h, read-out: IC50 (MTT cytotoxicity)
Experimental: as §3

[4] = system: p21 protein levels in DU145 cells; assay: Immunoblot quantification of p21, DU145; format: cell-based, human
Experimental: as §1

[5] = system: p27 protein levels in IMR90 cells; assay: Immunoblot quantification of p27, IMR90; format: cell-based, human
Experimental: as §1

LNCaP-S14 cells [6] = assay: Cell cycle analysis by flow cytometry, LNCaP-S14; format: cell-based, human
Experimental: as §2

[7] = system: p21 protein levels in HeLa cells; assay: Immunoblot quantification of p21, HeLa; format: cell-based, human
Experimental: as §1

CC(C)(C)c1cc2cc(NC(=O)c3cccs3)ccc2[nH]1 [SMIP001]
p27 protein level (immunoblot, DMSO = 1.0) [1]: 1.1 ± 0.2
Cell cycle distribution G1 (DU145 cells): 65.6 and 71.1
Cell cycle distribution G2 (DU145 cells): 9.7 and 13.6
Cell cycle distribution S (DU145 cells): 23.9 and 13.4
IC50 (LNCaP-WT cells; 72 h): 47.1 µM
IC50 (LNCaP-WT cells; 96 h): 32.7 µM
p27 protein level (immunoblot, DMSO = 1.0) [2]: 1.3 ± 0.6
IC50 (LNCaP-S14 cells [3]): 4.63 µM
p21 protein level (immunoblot, DMSO = 1.0) [4]: 1.1 ± 0.3
p27 protein level (immunoblot, DMSO = 1.0) [5]: 1.0 ± 0.0
Cell cycle distribution G1 (LNCaP-S14 cells [6]): 84.8 and 86.8
Cell cycle distribution G2 (LNCaP-S14 cells [6]): 6.3 and 3.5
Cell cycle distribution S (LNCaP-S14 cells [6]): 7.2 and 6.9
p21 protein level (immunoblot, DMSO = 1.0) [7]: 1.1 ± 0.2

From paper PMC3025922 (BMC Biology, 2010)
